Here are results for two compounds from patent EP4467141A1, “PYRAZOLO-QUINOLINES AS SELECTIVE INHIBITORS OF GENOTOXIC STRESS-INDUCED IKK/NF- KB PATHWAYS FOR CANCER THERAPY” (Max-Delbrück-Centrum für Molekulare Medizin in der …, priority 2023, dated 2024).

Test [1] concerns U2-OS cells. In words: Cell viability assay. Format: cell-based. The following applies: for cell viability, etoposide co-treatment: 10 µM plus etoposide 50 µM, compared to etoposide alone; for cell viability, compound alone: 10 µM, 6, 24, and 48 hours, compared to DMSO. How it is done: Fig.4: MW01 and MW05 reduce cell viability and increase p53-mediated apoptosis upon etoposide co-treatment. (A) Representative light microscopy images of U2-OS cells following treatment with DMSO, MW01 (10 µM), MW05 (10 µM), or etoposide (50 µM), or co-treatment with MW01 (10 µM) and etoposide (50 µM), or MW05 (10 µM) and etoposide (50 µM) at 24 (left) and 48 hours (right). (B) Quantification of cell viability using CellTiter-Fluor Cell Viability Assay at 6, 24, and 48 hours. Treatment with 0.1% SDS 30 minutes prior to assay was used as positive cell death control. (ns: not significant; *, **, ***: p<0.05, p<0.01, p<0.001). (C) U2-OS cells were treated with DMSO, MW01 (10 µM), MW 05 (10 µM), or etoposide (50 µM), or co-treated with MW01 (10 µM) and etoposide (50 µM), or MW05 (10 µM) and etoposide (50 µM), as indicated. After 24 hours, whole cell lysates were prepared and analyzed by Western blotting for p65 phosphorylation (S536), caspase-3 and cleaved caspase-3 (left panel) and for p53 and γH2AX) (right panel). Vinculin was used as loading control.
1×10^4 cells per well were seeded in a 96-well plate and incubated overnight. The day after, cells were treated with 10 µM of compounds under investigation, 50 µM Etoposide or 10 µM Cisplatin, alone or in combination, for appropriate time points. DMSO and 10% of Triton-X100 were used as negative and positive control respectively. Luminescent staining was performed using CellTiter-Glo Luminescent Cell Viability Assay (Promega, G7570), adding in each well a volume of CellTiter-Glo reagent equal to the volume of cell culture medium present into the well. After 1h of incubation at 37°C, luminescence was read by BioTek Cytation 1 Cell Imaging Multimode Reader (Agilent).
We hypothesized that due to the important function of the DNA double strand-induced IKK-NF-κB pathway as in anti-apoptotic signalling (Stilmann et al., 2009), both MW01 and MW05 should sensitize cells to DNA damaging agents, and therefore support their potential use to potentiate genotoxic therapies. To characterize the effect of MW01 and MW05 on cell viability, we treated cells with both compounds alone or in combination with etoposide to induce DNA lesions (Fig. 4A). […] The same effect in cell viability reduction was confirmed for MW01 and MW05 in co-treatment with cisplatin, another widely used chemotherapeutic drug. To investigate the underlying molecular causes of this phenotype, we looked at markers of NF-κB and p53 activation, DNA damage, and apoptosis after single and co-treatment with MW01, MW05, and etoposide (Fig 4C). MW01 and MW05 abrogated etoposide-stimulated p65 phosphorylation, thereby validating our inhibition of IKK and NF-κB activity. […]

In test [2] the target is T1, PAK7 (KIAA1264) (Homo sapiens, UniProt Q9P286).
T1 construct: purchased Thermo Fisher Scientific
T1 sequence (Q9P286 whole entry): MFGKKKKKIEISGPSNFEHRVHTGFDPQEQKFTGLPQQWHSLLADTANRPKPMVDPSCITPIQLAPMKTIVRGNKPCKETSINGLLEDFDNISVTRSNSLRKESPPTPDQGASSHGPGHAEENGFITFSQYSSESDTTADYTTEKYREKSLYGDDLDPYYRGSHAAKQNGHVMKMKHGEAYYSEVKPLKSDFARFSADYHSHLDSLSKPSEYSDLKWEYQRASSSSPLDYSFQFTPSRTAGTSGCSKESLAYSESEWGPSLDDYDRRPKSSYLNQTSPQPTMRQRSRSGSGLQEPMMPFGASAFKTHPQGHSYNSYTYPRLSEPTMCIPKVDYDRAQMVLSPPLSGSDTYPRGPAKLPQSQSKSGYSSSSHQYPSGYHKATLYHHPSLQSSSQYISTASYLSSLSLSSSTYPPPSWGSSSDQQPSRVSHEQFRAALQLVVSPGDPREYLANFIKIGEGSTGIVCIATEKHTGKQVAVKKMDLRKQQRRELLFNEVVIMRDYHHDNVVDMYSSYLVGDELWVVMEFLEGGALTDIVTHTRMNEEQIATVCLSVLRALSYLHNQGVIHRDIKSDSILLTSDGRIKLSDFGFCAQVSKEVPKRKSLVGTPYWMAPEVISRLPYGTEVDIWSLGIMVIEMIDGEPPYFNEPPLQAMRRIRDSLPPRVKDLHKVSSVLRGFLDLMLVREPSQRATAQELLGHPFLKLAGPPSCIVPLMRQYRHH
In words: Kinase panel study. Format: biochemical. The following applies: read-out: Percentage of inhibition; for inhibition at 1 µM: 1000nM; for inhibition at 10 µM: 10000nM. In short, it runs like this:
(§1)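 Single-point inhibition data at 10 µM or 1 µM compound are shown. They were generated in ZLyte- or Adapta-format biochemical assays performed externally under standard conditions.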

Test [3] concerns the target T2, EGFR (ErbB1) L861Q (Homo sapiens, UniProt P00533, L861Q).
T2 construct: purchased Thermo Fisher Scientific
Briefly: Kinase panel study. In kind it is biochemical. The following applies: read-out: Percentage of inhibition; for inhibition at 1 µM: 1000nM; for inhibition at 10 µM: 10000nM. In short, it runs like this:
as §1

The target of test [4] is T3, PRKX (Homo sapiens, UniProt P51817).
T3 construct: purchased Thermo Fisher Scientific
T3 sequence (P51817 1-358): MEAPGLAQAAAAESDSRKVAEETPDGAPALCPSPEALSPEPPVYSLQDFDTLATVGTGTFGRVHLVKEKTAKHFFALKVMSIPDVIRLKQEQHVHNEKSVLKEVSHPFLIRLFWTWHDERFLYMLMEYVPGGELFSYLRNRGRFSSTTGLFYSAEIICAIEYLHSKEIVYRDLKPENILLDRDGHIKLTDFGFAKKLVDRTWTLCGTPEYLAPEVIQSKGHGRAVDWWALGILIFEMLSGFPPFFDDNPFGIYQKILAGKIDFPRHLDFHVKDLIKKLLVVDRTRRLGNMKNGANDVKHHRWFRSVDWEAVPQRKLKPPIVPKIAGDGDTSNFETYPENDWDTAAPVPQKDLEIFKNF
Briefly: Kinase panel study. Format: biochemical. The following applies: read-out: Percentage of inhibition; for inhibition at 1 µM: 1000nM; for inhibition at 10 µM: 10000nM. In outline: as §1

Test [5] addresses T4, KIT V560G (Homo sapiens, UniProt P10721, V560G).
T4 construct: purchased Thermo Fisher Scientific
In words: Kinase panel study. In kind it is biochemical. The following applies: read-out: Percentage of inhibition; for inhibition at 1 µM: 1000nM; for inhibition at 10 µM: 10000nM. In short, it runs like this:
as §1

T2 sequence (P00533 25-1210 L861Q): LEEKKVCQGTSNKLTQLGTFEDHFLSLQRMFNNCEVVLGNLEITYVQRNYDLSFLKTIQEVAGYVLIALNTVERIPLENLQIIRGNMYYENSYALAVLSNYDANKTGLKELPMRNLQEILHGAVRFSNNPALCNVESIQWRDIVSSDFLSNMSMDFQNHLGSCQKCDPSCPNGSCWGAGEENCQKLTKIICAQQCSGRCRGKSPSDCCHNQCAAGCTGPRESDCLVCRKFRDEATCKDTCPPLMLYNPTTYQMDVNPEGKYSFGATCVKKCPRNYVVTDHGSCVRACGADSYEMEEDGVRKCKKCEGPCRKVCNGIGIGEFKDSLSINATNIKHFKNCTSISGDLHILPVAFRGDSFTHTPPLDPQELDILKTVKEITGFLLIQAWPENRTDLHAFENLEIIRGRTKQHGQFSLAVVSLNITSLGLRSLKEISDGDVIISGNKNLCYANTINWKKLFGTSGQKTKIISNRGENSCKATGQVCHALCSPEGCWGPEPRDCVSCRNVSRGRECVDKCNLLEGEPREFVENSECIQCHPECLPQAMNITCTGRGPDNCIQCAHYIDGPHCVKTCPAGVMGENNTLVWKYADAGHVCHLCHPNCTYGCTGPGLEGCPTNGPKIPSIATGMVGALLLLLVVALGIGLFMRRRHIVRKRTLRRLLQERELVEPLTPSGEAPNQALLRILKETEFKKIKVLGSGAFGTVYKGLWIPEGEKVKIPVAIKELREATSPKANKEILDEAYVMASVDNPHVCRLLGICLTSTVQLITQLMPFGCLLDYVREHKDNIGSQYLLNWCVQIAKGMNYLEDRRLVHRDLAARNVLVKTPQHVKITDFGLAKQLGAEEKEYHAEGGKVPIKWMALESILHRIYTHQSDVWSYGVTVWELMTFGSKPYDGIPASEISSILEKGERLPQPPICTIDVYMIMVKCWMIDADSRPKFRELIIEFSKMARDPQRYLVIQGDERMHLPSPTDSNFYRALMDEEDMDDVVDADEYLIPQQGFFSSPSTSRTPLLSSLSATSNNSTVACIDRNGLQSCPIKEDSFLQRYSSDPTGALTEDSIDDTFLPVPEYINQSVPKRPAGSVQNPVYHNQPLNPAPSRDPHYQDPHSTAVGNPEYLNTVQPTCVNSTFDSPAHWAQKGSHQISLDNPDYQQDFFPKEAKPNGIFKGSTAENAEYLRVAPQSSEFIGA
T4 sequence (P10721 26-976 V560G): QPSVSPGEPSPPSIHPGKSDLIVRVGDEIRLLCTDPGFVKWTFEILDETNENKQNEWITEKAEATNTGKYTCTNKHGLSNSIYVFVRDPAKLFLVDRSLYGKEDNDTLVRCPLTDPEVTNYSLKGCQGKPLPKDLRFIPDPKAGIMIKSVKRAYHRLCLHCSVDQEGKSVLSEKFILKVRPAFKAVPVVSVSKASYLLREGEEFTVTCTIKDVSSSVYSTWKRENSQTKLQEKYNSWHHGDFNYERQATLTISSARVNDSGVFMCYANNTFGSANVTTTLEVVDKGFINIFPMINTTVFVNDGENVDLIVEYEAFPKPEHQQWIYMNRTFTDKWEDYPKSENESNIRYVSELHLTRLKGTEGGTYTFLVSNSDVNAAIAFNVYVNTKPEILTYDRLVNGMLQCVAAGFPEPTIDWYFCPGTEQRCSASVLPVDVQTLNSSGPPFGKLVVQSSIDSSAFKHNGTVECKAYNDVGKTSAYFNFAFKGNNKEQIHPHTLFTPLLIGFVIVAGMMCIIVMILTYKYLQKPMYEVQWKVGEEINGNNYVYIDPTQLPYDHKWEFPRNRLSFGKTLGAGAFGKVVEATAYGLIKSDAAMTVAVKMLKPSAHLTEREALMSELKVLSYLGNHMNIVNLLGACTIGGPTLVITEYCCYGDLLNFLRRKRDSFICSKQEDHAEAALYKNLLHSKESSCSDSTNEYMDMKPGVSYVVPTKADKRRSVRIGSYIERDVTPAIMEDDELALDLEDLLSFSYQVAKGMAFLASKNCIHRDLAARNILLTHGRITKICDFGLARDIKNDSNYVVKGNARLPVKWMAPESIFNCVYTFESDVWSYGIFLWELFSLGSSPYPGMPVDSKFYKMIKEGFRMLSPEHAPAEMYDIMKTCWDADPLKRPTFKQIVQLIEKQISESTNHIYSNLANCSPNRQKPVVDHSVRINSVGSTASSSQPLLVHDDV

By inhibition is commonly meant the relative decrease from the control value, in per cent. For the compound `COc1ccc2c(c1OC)c(=O)n1c3ccc(O)cc3c3ccnc2c31` [MW01, 5-Hydroxy-10,11-dimethoxy-9H-benzo[c]indolo[3,2,1-ij][1,5]naphthyridin-9-one], the “cell viability, etoposide co-treatment” value in test [1] was “significantly reduced cell viability after 6 hours”. Further, in test [1], the “cell viability, compound alone” value is listed as “slightly reduced cell viability”. Also, the inhibition at 1 µM in test [2] was 2%; in test [3], -9%; in test [4] it was 22%; in test [5] it was 12%. In addition, the inhibition at 10 µM in test [2] amounted to 11%; in test [3], 8%; in test [4] it was 16%; in test [5], 7%.

Turning to `COc1ccc2cc3c(N)nn(C(=O)c4cccc(N(C)C)c4)c3nc2c1` [MW05, (3-Amino-7-methoxypyrazolo[3,4-b]quinolin-1-yl)-[3-(dimethylamino)phenyl]methanone], the “cell viability, etoposide co-treatment” value in test [1] is “significant reduction after 24 hours”. Moreover, in test [1], the “cell viability, compound alone” value is “slightly reduced cell viability”. For the same compound, the inhibition at 1 µM was 15% in test [2], -6% in test [3], 8% in test [4] and 11% in test [5]. For the same compound, the inhibition at 10 µM is 13% in test [2], -18% in test [3], -2% in test [4] and 2% in test [5].
